Marks after values point to notes of the source that are not given here.
Tests used:
[1] = test system: formalin-induced nociception (paw licking); assay: Subchronic inflammatory nociception in mice (formalin test); type: in vivo; conditions: for Nociceptive response induced by formalin: 10, 20, 40 mg/kg i.p.; for nociceptive threshold [s]: late phase (20-30 min), 10 mg/kg i.p.
Description: Subchronic inflammatory nocicoetion in mice was induced by the subplantar injection of formalin (0.02 ml of a 5% solution). Nociceptive behaviour (paw licking) was measured and quantified between 0 and 5 min (acute pain) and between 20 and 30 min (subchronic inflammatory pain) after formalin.
(§1) Drugs and experimental design: SPM 927 and GBP were suspended in 1% methylcellulose and administered i.p. at doses of 10 mg/kg, 20 mg/kg and 40 mg/kg. Pre-treatment time was 30 min before pain measurement. One group of animals served as controls and consequently received an injection of solvent (10 ml/kg) and another group of animals received a reference compound (Carrageenan test: 10 mg/kg indomethacin; Formalin test: 10 mg/kg morphine). Each compound was tested in a separate experiment and each experiment included a control and a reference group. 10 rats per group were used in the Carrageenan test and 6 mice per group in the formalin test.

[2] = test system: Carrageenan-induced mechanical hyperalgesia; assay: Carrageenan-induced mechanical hyperalgesia, paw pressure (Randall-Sellito) test; type: in vivo, rats; conditions: for Effect on Carrageenan-induced mechanical hyperalgesia: all doses tested (10, 20, 40 mg/kg i.p.)
Description: Carrageenan-induced mechanical hvderalcesia in rats was induced by subplantar injection of a 0.1 ml of a 2% carrageenan suspension and measured 3 h afterwards by the paw pressure (Randall-Sellito) test.
as §1

[3] = test system: neuropathic pain (CHUNG), tactile stimulation; assay: Neuropathic pain (CHUNG) test, tactile stimulation on lesioned paw; type: in vivo, rat; conditions: tactile and thermal stimulation
Source text: The following Tables 8 and 9 show the effects of harkoseride (hereinafter referred to as SPM 927), carbamazepine, levetiracetam, gabapentin and morphine in the neuropathic pain (CHUNG) test in the rat. Eight (8) rats per group were used.

[4] = test system: acute spinal thermal nociception; assay: Tail flick test, rat; type: in vivo
Source text: Harkoseride was additionally tested for potential activity in acute spinal thermal nociception using the tail flick test. In this model of acute thermal spinal/reflex hyperalgesia radiant heat is applied to the animal's tail approximately 2 cm from the tip and time latency for withdrawal reaction is automatically assessed by an algometer, a defined maximal stimulus time prevents tissue damage. This test is widely used as an assay for the anti-nociceptive efficacy of pharmacological agents and is highly predictive of acute analgesic efficacy in humans.
Results for 20 and 40 mg/kg harkoseride i.p are shown in table 5 [percent anti-nociception, calculated as [{(post-drug latency)−(pre-drug-latency)}/{(max. latency)−(pre-drug latency)}×100]±SEM, n=12/group]. A baseline or pre-drug tail-flick latency was determined by averaging 5 consecutive measurements taken 2 minutes apart. Vehicle (sterile water 0.04 ml/10 g body weight) or harkoseride were then administered and tail flick latencies recorded at 10-minute intervals for the next 60 minutes.

[5] = test system: mechanical allodynia induced by unilateral nerve ligation; assay: Chronic constriction injury (CCI) model, mechanical allodynia (Von Frey); type: in vivo, rat; conditions: 5-40 mg/kg i.p.
Description: (§2) The effectiveness of harkoseride in reducing spontaneous chronic pain, mechanical allodynia, and thermal hyperalgesia was tested using the chronic constriction injury (CCI) model of peripheral neuropathy, one of the best characterised in vivo animal models used to study chronic pain due to peripheral nerve injury. In this model, loose ligatures are placed around the sciatic nerve, which produces axonal swelling and a partial deafferentation manifested as a significant but incomplete loss of axons in the distal portion of the peripheral nerve. One of the prominent behaviours seen following sciatic nerve ligation is the appearance of hind paw guarding, thought to be an indication of an ongoing spontaneous chronic pain. Support for this idea is derived from reports of increased spinal cord neural activity, and increased spontaneous neuronal discharge in spinothalamic tract neurons and in the ventrobasal thalamus in the absence of overt peripheral stimulation. In addition to the appearance of spontaneous pain behaviours, several abnormalities in stimulus evoked pain occur as a result of CCI, including thermal hyperalgesia and mechanical allodynia. […]
Mechanical sensitivity and allodynia of the ligated rat hind paw was quantified by brisk foot withdrawal in response to normally innocuous mechanical stimuli as described previously. […]

[6] = test system: spontaneous pain induced by unilateral chronic constriction injury; assay: Chronic constriction injury (CCI, Bennett-model), spontaneous pain; type: in vivo, rat; conditions: 5-40 mg/kg i.p.
Description: as §2
Spontaneous pain (ongoing pain without an apparent external stimulus) of the ligated paw was assessed for 5 min following a 10 min acclimation period by use of a rating score (weighted behaviour score scaled 0-5).

[7] = test system: chronic constriction injury-induced thermal hyperalgesia; assay: Chronic constriction injury (CCI) model, thermal hyperalgesia; type: in vivo, rat; conditions: 5-40 mg/kg i.p.
Description: as §2
Thermal hyperalgesia was assessed by means of withdrawal latency in response to radiant heat applied to the subplantar surface of the ligated rat hind paw. […]

[8] = test system: formalin-induced tonic inflammatory nociceptive behaviour; assay: Formalin test, rat (weighted behavioural scoring); type: in vivo
Description: The formalin test is a chemically-induced tonic pain model in which biphasic changes of nociceptive behaviour are assessed and spinal/supraspinal plasticity of nociception is considered as a molecular basis for neuropathic pain particularly during the second (=late) phase of the test, during which most clinically used drugs against neuropathic pain are active.
The compound was tested for anti-nociceptive properties by use of the weighted behavioural scoring method: Freely moving animals underwent observational assessment of the position of the left hind paw according to a rating score scaled 0-3 before and 10, 20, 30 and 40 min after injection of 0.05 ml of sterile 2.5% formalin under the skin on the dorsal surface of the paw.

Row | SMILES | Nociceptive response induced by formalin [1] | Effect on Carrageenan-induced mechanical hyperalgesia [2] | nociceptive threshold [s] ([1]; GBP experiment) | nociceptive threshold [s] ([1]; SPM 927 experiment) | Potency compared with the reference compounds in the CHUNG test [3] | Effect on the latency of the tail flick reflex ([4]; 20 and 40 mg/kg i.p.) | Anti-nociceptive effect detectable in the tail-flick test ([4]; rat, in vivo) | Intensity of mechanical allodynia induced by unilateral nerve ligation [5] | Efficacy on formalin-induced nociception, similar to that of morphine ([1]; mouse, in vivo) | Level of spontaneous pain induced by unilateral chronic constriction injury [6] | Chronic constriction injury-induced thermal hyperalgesia [7] | Antinociceptive effect relative to reference compound ([2]; vs 10 mg/kg indomethacin) | Formalin-induced tonic inflammatory nociceptive behaviour ([8]; i.p. just prior to formalin injection) | Efficacy in the late phase of the rat formalin test ([8]; late phase)
1 | NCC1(CC(=O)O)CCCCC1 [GBP, gabapentin, reference compound] | slightly but not significantly inhibited | no significant effect |  |  |  |  |  |  |  |  |  |  |  | 
2 | CN1CC[C@]23c4c5ccc(O)c4O[C@H]2[C@@H](O)C=C[C@H]3[C@H]1C5 [Morphine, morphine] |  |  | 0 ± 0^a s | 10 ± 8^a s |  |  |  |  |  |  |  |  |  | 
3 | COC[C@@H](NC(C)=O)C(=O)NCc1ccccc1 [SPM 927, (R)-2-Acetamido-N-benzyl-3-methoxypropionamide] | dose dependently suppressed | full reversal |  |  | minimum comparable, but usually more potent than the reference compounds | little or no effect | no anti-nociceptive effect | dose dependently reduced | near complete reversal | did not change | dose dependently reduced | comparable to that of the reference compound Indomethacin | dose dependant reduction | Significant and dose dependent efficacy

From US7875652B2, “Method and composition for treating pain or tinnitus aureum” (UCB Pharma GmbH, priority 2001, dated 2011)
